{"source": "patent US7718846B2", "about": "“Animal models of long QT syndrome and uses thereof” (priority 2005, dated 2010)", "key": {"IKs": {"system": "IKs", "settings": "experimental models in dogs; cited from earlier work"}, "IKr": {"system": "IKr", "settings": "E4031 0.5 μM; cited from earlier work"}, "[1]": {"system": "rabbit left ventricular wedge preparation", "settings": "100 μM", "description": "Shown are floating microelectrode recordings from an M cell in the subendocardial region of the wedge preparation and an ECG recorded across the bath.\nRabbits weighing 2.5 3.5 kg may be anticoagulated with heparin and anesthetized with pentobarbital (30-35 mg/kg, i.v.). Transmural wedges with dimensions of approximately 2×1.5×0.9 cm to 3×2×1.5 cm may be dissected from the left ventricle. The tissue may be cannulated via a small (diameter ˜100 μm) native branch of the left descending coronary artery and perfused with cardioplegic solution. Unperfused tissue may be carefully removed using a razor blade. […] A transmural ECG may be recorded using electrodes consisting of AgCl half cells attached to Tyrode's-filled tapered polyethylene electrodes which will be placed in the Tyrode's solution bathing the preparation, 1.0 to 1.5 cm from the epicardial and endocardial surfaces of the preparation, along the same vector as the transmembrane recordings. […] Transmembrane action potentials may be simultaneously recorded from epicardial, M, and endocardial sites using three to four separate intracellular floating microelectrodes (DC resistance: 10 to 20 MΩ) filled with 2.7 M KCl and connected to a high-input impedance amplifier. […]"}, "LQT2": {"system": "LQT2", "settings": "cited from earlier work"}, "α1-adrenoreceptors": {"system": "α1-adrenoreceptors", "settings": "cited from earlier work"}, "α1-adrenoreceptor": {"system": "α1-adrenoreceptor", "settings": "infusion, patient with LQTS; cited from earlier work"}, "WT rabbits": {"system": "WT rabbits", "settings": "Carlsson rabbit model; cited from earlier work"}}, "data": [{"smiles": "CCS(=O)(=O)N(C)[C@H]1c2cc(C#N)ccc2OC(C)(C)[C@@H]1O", "note": "(racemic) [chromanol 293B]", "values": [{"measurement": "TdP, spontaneous or in response to program stimulation", "setting": "IKs", "result": "never produced TdP"}]}, {"smiles": "Cc1cccc(CCN2CCC(C(=O)c3ccc(NS(C)(=O)=O)cc3)CC2)n1", "note": "[E4031, Benzenesulfonamide E-4031]", "values": [{"measurement": "APD", "setting": "IKr", "result": "> 1", "unit": "s"}, {"measurement": "apex-to-base dispersion of repolarization", "setting": "IKr", "result": "marked enhancement of the apex-to-base dispersion of repolarization with reversal of repolarization"}]}, {"smiles": "CC(C)NC[C@@H](O)c1ccc(NS(C)(=O)=O)cc1", "note": "[d-sotalol]", "values": [{"measurement": "Action potential duration at 90% repolarization (APD90)", "setting": "[1]", "result": 427, "unit": "ms"}, {"measurement": "QT interval", "setting": "[1]", "result": 467, "unit": "ms"}]}, {"smiles": "CC(C)NCC(O)c1ccc(O)c(O)c1", "note": "(centres unmarked) [isoproterenol]", "values": [{"measurement": "duration of transient increase in TDR", "setting": "LQT2", "result": "less than 2 minutes"}]}, {"smiles": "COc1ccc(OC)c(C(O)C(C)N)c1", "note": "(centres unmarked) [methoxamine]", "values": [{"measurement": "APD90 in tissues from the M region", "setting": "α1-adrenoreceptors; canine wedge preparations", "result": "abbreviation of APD90"}, {"measurement": "APD90 in Purkinje fibers", "setting": "α1-adrenoreceptors; canine", "result": "dose- and rate-dependent prolongation of APD90"}, {"measurement": "QTc", "setting": "α1-adrenoreceptor", "result": "prolong the QTc"}]}, {"smiles": "COc1cc2nc(N3CCN(C(=O)c4ccco4)CC3)nc(N)c2cc1OC", "note": "[prazosin]", "values": [{"measurement": "suppression of arrhythmias by pretreatment", "setting": "WT rabbits", "result": "as effective as pretreatment with propranolol in suppressing the arrhythmias"}]}, {"smiles": "CC(C)NCC(O)COc1cccc2ccccc12", "note": "(centres unmarked) [propranolol]", "values": [{"measurement": "suppression of arrhythmias by pretreatment", "setting": "WT rabbits", "result": "suppressing the arrhythmias"}]}]}
